Measurements reported in patent publication US8921397B2, “Benzofurane-piperidine compounds” (Hoffmann-La Roche Inc., priority 2011, dated 2014).

Key:
human 5-HT2A receptor = human 5-HT2A receptor (Homo sapiens (Human), UniProt P28223); assay: Radioligand binding ([3H]-ketanserin) to human 5-HT2A receptor, HEK293 EBNA membranes; conditions: HEK293 EBNA cells expressing human 5-HT2A receptor
Description: The ability of the compounds to bind to the 5-HT2A, D3 and D2 receptors was determined using radioligand binding to cloned receptors selectively expressed in HEK-293 EBNA cells.
(§1) HEK293 EBNA cells were transiently transfected with expression plasmids encoding for the human D2 or D3 or for the human 5-HT2A receptor, respectively. The cells were harvested 48 h post-transfection, washed three times with cold PBS and stored at −80° C. prior to use. The pellet was suspended in cold 50 mM Tris-HCl buffer containing 10 mM EDTA (pH 7.4) and was homogenized with a Polytron (Kinematica AG, Basel, Switzerland) for 20-30 sec at 12.000 rpm. After centrifugation at 48.000×g for 30 min at 4° C., the pellet was resuspended in cold 10 mM Tris-HCl buffer containing 0.1 mM EDTA (pH 7.4), homogenized, and centrifuged as above. This pellet was further resuspended in a smaller volume of ice cold 10 mM Tris-HCl buffer containing 0.1 mM EDTA (pH 7.4) and homogenized with a Polytron for 20-30 sec at 12.000 rpm. The protein content of this homogenate was determined with the Bio-Rad (Bradford) Protein Assay (Biorad Laboratories GmbH, München, Germany) according to the instructions of the manufacturer using gamma globulin as the standard. This homogenate was stored at −80° C. in aliquots and thawed immediately prior to use.
(§2) Aliquots of membrane preparations were thawed at RT, resuspended in assay buffer (D2, D3: 50 mM Tris-HCl, 120 mM NaCl, 5 mM MgCl2, 1 mM EDTA, 5 mM KCl, 1.5 mM CaCl2, pH=7.4; 5-HT2A: 50 mM Tris-HCl, 10 mM MgCl2, 1 mM EGTA, pH=7.4), homogenized with a Polytron for 20-30 sec at 12.000 rpm and adjusted to a final concentration of approximately 7.5 μg protein/well (D2, D3) and 15 μg protein/well (5-HT2A), respectively.
(§3) The binding affinity (Ki) of the compounds was determined using radioligand binding.
(§4) Membranes were incubated in a total volume of 200 μl with a fixed concentration of radioligand (final concentration approximately 0.7 nM [^3H]-spiperone for D2, 0.5 nM [^3 H]-spiperone for D3, and 1.1 nM [^3H]-ketanserin for 5-HT2A) and ten concentrations of test compound in ranging between 10 μM-0.1 nM for 1 h at RT. At the end of the incubation, the reaction mixtures were filtered on to unifilter 96-well white microplates with bonded GF/C filters (Packard BioScience, Zürich, Switzerland; preincubated for 1 h in 0.1% polyethylenimine (PEI) in assay buffer) with a Filtermate 196 harvester (Packard BioScience) and washed 3 times with cold assay buffer. The nonspecific binding was determined with equally composed reaction mixtures in the presence of 10 μM unlabelled spiperone. Per well 45 μl of Microscint 40 (Perkin Elmer, Schwerzenbach, Switzerland) was added, plates for sealed, shaken for 20 min and counted for 3 min on a Topcount Microplate Scintillation Counter (Canberra Packard SA, Zürich, Switzerland) with quenching correction.
(§5) The CPM value for each duplicate of a concentration of competing compound was averaged (y1), then the % specific binding was calculated according to the equation (((y1−non-specific)/(total binding−non-specific))×100). Graphs were plotted with the % specific binding using XLfit, a curve-fitting program that iteratively plots the data using Levenberg-Marquardt algorithm. The single site competition analysis equation used was y=A+((B−A)/(1+((x/C)D))), where y is the % specific binding, A is the minimum y, B is the maximum y, C is the IC50, x is the log 10 of the concentration of the competing compound and D is the slope of the curve (the Hill Coefficient). From these curves the IC50 (inhibition concentration at which 50% specific binding of the radioligand was displaced) and Hill coefficient were determined. The affinity constant (Ki) was calculated using the Cheng-Prusoff equation Ki=(IC50/1+([L]/Kd), where [L] is the concentration of radioligand and Kd is the dissociation constant of the radioligand at the receptor as determined by the saturation isotherm.

human D3 receptor = human D3 receptor (Homo sapiens (Human), UniProt P35462); assay: Radioligand binding ([3H]-spiperone) to human D3 receptor, HEK293 EBNA membranes; conditions: HEK293 EBNA cells expressing human D3 receptor
Description: as §1, §2, §3, §4, §5

human D2 receptor = human D2 receptor (Homo sapiens (Human), UniProt P14416); assay: Radioligand binding ([3H]-spiperone) to human D2 receptor, HEK293 EBNA membranes; conditions: HEK293 EBNA cells expressing human D2 receptor
Description: as §1, §2, §3, §4, §5

human D3 receptor, sequence (P35462 whole entry): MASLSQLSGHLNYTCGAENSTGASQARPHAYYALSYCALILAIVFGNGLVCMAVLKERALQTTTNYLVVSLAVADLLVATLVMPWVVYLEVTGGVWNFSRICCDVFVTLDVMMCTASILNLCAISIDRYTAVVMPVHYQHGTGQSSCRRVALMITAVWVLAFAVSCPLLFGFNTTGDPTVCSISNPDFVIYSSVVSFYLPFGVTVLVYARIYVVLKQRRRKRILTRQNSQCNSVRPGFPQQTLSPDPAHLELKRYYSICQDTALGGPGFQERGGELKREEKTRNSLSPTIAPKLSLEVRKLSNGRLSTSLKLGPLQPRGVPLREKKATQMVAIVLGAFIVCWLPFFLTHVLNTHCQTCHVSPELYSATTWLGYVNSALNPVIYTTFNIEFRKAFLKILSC
human D2 receptor, sequence (P14416 whole entry): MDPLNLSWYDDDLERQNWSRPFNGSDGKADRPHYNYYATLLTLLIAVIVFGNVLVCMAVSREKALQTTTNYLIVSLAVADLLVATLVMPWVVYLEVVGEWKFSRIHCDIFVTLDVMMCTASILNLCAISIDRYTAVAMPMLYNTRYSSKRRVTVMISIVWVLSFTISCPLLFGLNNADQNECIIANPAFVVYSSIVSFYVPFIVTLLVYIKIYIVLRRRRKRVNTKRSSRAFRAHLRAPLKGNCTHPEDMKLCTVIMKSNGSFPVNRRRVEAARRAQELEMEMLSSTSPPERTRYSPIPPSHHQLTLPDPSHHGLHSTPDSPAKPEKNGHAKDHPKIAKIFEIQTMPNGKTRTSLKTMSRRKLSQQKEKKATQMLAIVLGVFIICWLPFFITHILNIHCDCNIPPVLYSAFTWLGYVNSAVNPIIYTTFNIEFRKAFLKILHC
human 5-HT2A receptor, sequence (P28223 whole entry): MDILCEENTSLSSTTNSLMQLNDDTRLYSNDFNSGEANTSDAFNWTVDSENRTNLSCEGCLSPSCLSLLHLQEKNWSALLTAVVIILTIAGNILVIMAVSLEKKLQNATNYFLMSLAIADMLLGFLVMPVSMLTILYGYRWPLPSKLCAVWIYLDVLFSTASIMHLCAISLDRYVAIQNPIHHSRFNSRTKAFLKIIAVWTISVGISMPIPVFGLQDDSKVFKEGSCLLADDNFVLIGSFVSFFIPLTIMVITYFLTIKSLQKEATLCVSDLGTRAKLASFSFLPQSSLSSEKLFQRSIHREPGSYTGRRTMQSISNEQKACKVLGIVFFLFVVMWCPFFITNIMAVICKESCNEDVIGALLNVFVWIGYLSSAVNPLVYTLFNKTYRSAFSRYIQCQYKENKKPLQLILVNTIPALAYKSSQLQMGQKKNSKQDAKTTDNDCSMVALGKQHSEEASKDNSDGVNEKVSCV

Row | Structure (SMILES) | Ki (human 5-HT2A receptor) | Ki (human D3 receptor) | melting point | Ki (human D2 receptor)
1 | O=C(N[C@H]1CC[C@H](CCN2CCC(c3coc4ccccc34)CC2)CC1)C1CC1(F)F (stereo partly drawn) [Example 30, 2,2-Difluoro-cyclopropanecarboxylic acid trans-{4-[2-(4-benzofuran-3-yl-piperidin-1-yl)-ethyl]-cyclohexyl}-amide] | 8.59 nM | 3.53 nM | 189 °C | 28.1 nM
2 | CCCC(=O)N[C@H]1CC[C@H](CCN2CCC(c3coc4ccccc34)CC2)CC1 [Example 33, trans-N-{4-[2-(4-Benzofuran-3-yl-piperidin-1-yl)-ethyl]-cyclohexyl}-butyramide] | 5.53 nM | 1.71 nM | 155 °C | 45.3 nM
3 | CC(C)(O)CC(=O)N[C@H]1CC[C@H](CCN2CCC(c3coc4ccccc34)CC2)CC1 [Example 34, trans-N-{4-[2-(4-Benzofuran-3-yl-piperidin-1-yl)-ethyl]-cyclohexyl}-3-hydroxy-3-methyl-butyramide] | 5.1 nM | 2.25 nM | 150 °C | 41.3 nM
4 | O=C(C[C@@H](O)C(F)(F)F)N[C@H]1CC[C@H](CCN2CCC(c3coc4ccccc34)CC2)CC1 [Example 35, trans-N-{4-[2-(4-Benzofuran-3-yl-piperidin-1-yl)-ethyl]-cyclohexyl}-(R)-4,4,4-trifluoro-3-hydroxy-butyramide] | 9.69 nM | 2.29 nM | 166 °C | 50.4 nM
5 | CS(=O)(=O)N[C@H]1CC[C@H](CCN2CCC(c3coc4ccccc34)CC2)CC1 [Example 36, trans-N-{4-[2-(4-Benzofuran-3-yl-piperidin-1-yl)-ethyl]-cyclohexyl}-methanesulfonamide] | 5.43 nM | 2.85 nM | 142 °C | 47.4 nM
6 | CCS(=O)(=O)N[C@H]1CC[C@H](CCN2CCC(c3coc4ccccc34)CC2)CC1 [Example 37, Ethanesulfonic acid trans-{4-[2-(4-benzofuran-3-yl-piperidin-1-yl)-ethyl]-cyclohexyl}-amide] | 5.07 nM | 2.87 nM | 153 °C | 48 nM
7 | Cc1ccc(S(=O)(=O)N[C@H]2CC[C@H](CCN3CCC(c4coc5ccccc45)CC3)CC2)cc1 [Example 38, trans-N-{4-[2-(4-Benzofuran-3-yl-piperidin-1-yl)-ethyl]-cyclohexyl}-4-methyl-benzenesulfonamide] | 41.5 nM | 6.24 nM | 149 °C | 58.6 nM
8 | O=C(N[C@H]1CC[C@H](CCN2CCC(c3coc4ccccc34)CC2)CC1)C(F)(F)F [Example 39, trans-N-{4-[2-(4-Benzofuran-3-yl-piperidin-1-yl)-ethyl]-cyclohexyl}-2,2,2-trifluoro-acetamide] | 8.62 nM | 4.08 nM | 152 °C | 37.5 nM
9 | CC(C)(C)CC(=O)N[C@H]1CC[C@H](CCN2CCC(c3coc4ccccc34)CC2)CC1 [Example 40, trans-N-{4-[2-(4-Benzofuran-3-yl-piperidin-1-yl)-ethyl]-cyclohexyl}-3,3-dimethyl-butyramide] | 10.4 nM | 4.35 nM | 174 °C | 53 nM
10 | Cc1cc(C(=O)N[C@H]2CC[C@H](CCN3CCC(c4coc5ccccc45)CC3)CC2)on1 [Example 41, 3-Methyl-isoxazole-5-carboxylic acid trans-{4-[2-(4-benzofuran-3-yl-piperidin-1-yl)-ethyl]-cyclohexyl}-amide] | 9.21 nM | 4.23 nM | 178 °C | 36.4 nM
11 | CN(C)C(=O)CCC(=O)N[C@H]1CC[C@H](CCN2CCC(c3coc4ccccc34)CC2)CC1 [Example 42, trans-N-{4-[2-(4-Benzofuran-3-yl-piperidin-1-yl)-ethyl]-cyclohexyl}-N′,N′-dimethyl-succinamide] | 7.8 nM | 2.43 nM | 167 °C | 92.3 nM
12 | CN(C)S(=O)(=O)N[C@H]1CC[C@H](CCN2CCC(c3coc4ccccc34)CC2)CC1 [Example 43, N′-(trans-4-{2-[4-(benzofuran-3-yl)-piperidin-1-yl]-ethyl}-cyclohexyl)-N,N-dimethylsulfamide] | 4.41 nM | 3.02 nM | 229 °C | 47 nM
13 | O=C(CCC(F)(F)F)N[C@H]1CC[C@H](CCN2CCC(c3coc4ccccc34)CC2)CC1 [Example 44, trans-N-{4-[2-(4-Benzofuran-3-yl-piperidin-1-yl)-ethyl]-cyclohexyl}-4,4,4-trifluoro-butyramide] | 15 nM | 2.94 nM | 192 °C | 61.2 nM
14 | CC(C)CCC(=O)N[C@H]1CC[C@H](CCN2CCC(c3coc4ccccc34)CC2)CC1 [Example 45, 4-Methyl-pentanoic acid trans-{4-[2-(4-benzofuran-3-yl-piperidin-1-yl)-ethyl]-cyclohexyl}-amide] | 13.1 nM | 2.9 nM | 179 °C | 66 nM
15 | CC[C@@H](O)CC(=O)N[C@H]1CC[C@H](CCN2CCC(c3coc4ccccc34)CC2)CC1 [Example 46, (R)-3-Hydroxy-pentanoic acid trans-{4-[2-(4-benzofuran-3-yl-piperidin-1-yl)-ethyl]-cyclohexyl}-amide] | 8.7 nM | 2.49 nM | 142 °C | 55.4 nM
16 | CC[C@H](O)CC(=O)N[C@H]1CC[C@H](CCN2CCC(c3coc4ccccc34)CC2)CC1 [Example 47, (S)-3-Hydroxy-pentanoic acid trans-{4-[2-(4-benzofuran-3-yl-piperidin-1-yl)-ethyl]-cyclohexyl}-amide] | 9.1 nM | 2.25 nM | 140 °C | 33.8 nM
17 | O=C(CC1CCC1)N[C@H]1CC[C@H](CCN2CCC(c3coc4ccccc34)CC2)CC1 [Example 48, trans-N-{4-[2-(4-Benzofuran-3-yl-piperidin-1-yl)-ethyl]-cyclohexyl}-2-cyclobutyl-acetamide] | 4.94 nM | 2.05 nM | 173 °C | 58.2 nM
18 | O=C(N[C@H]1CC[C@H](CCN2CCC(c3coc4ccccc34)CC2)CC1)c1ccc(Cl)cc1 [Example 49, trans-N-{4-[2-(4-Benzofuran-3-yl-piperidin-1-yl)-ethyl]-cyclohexyl}-4-chloro-benzamide] | 9.01 nM | 3.22 nM | 203 °C | 25.8 nM
19 | O=C(N[C@H]1CC[C@H](CCN2CCC(c3coc4ccccc34)CC2)CC1)c1ccc(C(F)(F)F)cc1 [Example 50, trans-N-{4-[2-(4-Benzofuran-3-yl-piperidin-1-yl)-ethyl]-cyclohexyl}-4-trifluoromethyl-benzamide] | 4.75 nM | 2.21 nM | 218 °C | 152 nM
20 | O=C(N[C@H]1CC[C@H](CCN2CCC(c3coc4ccccc34)CC2)CC1)c1ccc(N2CCCCC2)cc1 [Example 51, trans-N-{4-[2-(4-Benzofuran-3-yl-piperidin-1-yl)-ethyl]-cyclohexyl}-4-piperidin-1-yl-benzamide] | 6.85 nM | 4.39 nM | 221 °C | 345 nM
